The source of these data is patent US9327059B2, “Steroid-containing sustained release intraocular implants and related methods” (Allergan, Inc., priority 2004, dated 2016).

Where two headings read alike, the source gives them in different places.

For series [1] the following is noted: in vivo; cited from earlier work.
Series [2] is described as follows: Relative water solubility of the steroids. The class given is physicochemical.
A short description of series [3]: In vivo fluocinolone acetonide levels in rabbit eyes after intravitreal implant. Here is the method:
The in vivo study was conducted on four rabbits. The fluocinolone-containing implants were surgically implanted into the posterior segment (i.e., the vitreous) of the right eye (OD) and left eye (OS) of each rabbit. The aqueous humor (15-20 μL) and the vitreous humor (150-200 μL) were withdrawn for the first two rabbits, while the sampling for the remaining two rabbits was determined by a sampling schedule wherein the sampling days were days 7, 14, 21, 40, and 60, 90, and 120.

Take `CC(C)OC(=O)CCC/C=C\C[C@@H]1[C@@H](CC[C@@H](O)CCc2ccccc2)[C@H](O)C[C@@H]1O` [latanoprost]: the “human eyes with increase in brown pigment in the iris” value in series [1] is recorded as 5-15%.
Regarding `CC1(C)O[C@@H]2C[C@H]3[C@@H]4CCC5=CC(=O)C=C[C@]5(C)[C@@]4(F)[C@@H](O)C[C@]3(C)[C@]2(C(=O)CO)O1` [triamcinalone acetonide], the “water solubility, times more soluble than beclomethasone dipropionate” value in series [2] is “about 150 times”.
Take `CC1(C)O[C@@H]2C[C@H]3[C@@H]4C[C@H](F)C5=CC(=O)C=C[C@]5(C)[C@@]4(F)[C@@H](O)C[C@]3(C)[C@]2(C(=O)CO)O1` [Fluocinolone acetonide, 1,4-pregnadien-6α, 9α-difluoro-11β, 16α,17,21-tetrol-3,20-dione 16,17-acetonide]: the “fluocinolone acetonide level in anterior chamber / aqueous humor” value in series [3] (implant configuration #29, any time point) was “not detected”. Besides, the “Fluocinolone (ng/mL) in vitreous humor, single eye” value in series [3] (intravitreal implant configuration #29, day 40) came out at 40.80 ng/mL. In addition, in series [3] (vitreous humor, intravitreal implant configuration #29, day 7), the concentration at 7 day stood at 95.9 ng/mL. In addition, in series [3] (vitreous humor, intravitreal implant configuration #29, day 14), the concentration at 14 day was 50.9 ng/mL. Also, the concentration at 21 day in series [3] (vitreous humor, intravitreal implant configuration #29, day 21) was found to be 45.7 ng/mL. Also, the concentration at 40 day in series [3] (vitreous humor, intravitreal implant configuration #29, day 40, read-out: Fluocinolone (ng/mL) in vitreous humor, Average) was 42.4 ng/mL; in series [3] (vitreous humor, intravitreal implant configuration #29, day 40, read-out: Fluocinolone (ng/mL) in vitreous humor, single eye), 44 ng/mL. The same molecule gave a concentration at 60 day in series [3] (vitreous humor, intravitreal implant configuration #29, day 60) of 50.6 ng/mL. In series [3] (vitreous humor, intravitreal implant configuration #29, day 90), this molecule had a concentration at 90 day of 36.1 ng/mL. Further, in series [3] (vitreous humor, intravitreal implant configuration #29, day 120), the concentration at 120 day was 28.1 ng/mL.
